Measured values from US20230089247A1, “NOVEL COMPOUNDS SUITABLE FOR THE TREATMENT OF DYSLIPIDEMIA” (ZYDUS LIFESCIENCES LIMITED, priority 2019, published 2023).

Tests used:
PCSK9 = PCSK9 (Homo sapiens, UniProt Q8NBP7); assay: BODIPY-LDL uptake assay in HepG2 cells; format: cell-based; conditions: 5 μg/ml PCSK9, BODIPY-LDL
Outline: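 Compounds pre-incubated 60 min with 5 μg/ml PCSK9 (0.2% DMSO), then added to HepG2 cells for 16 h; 1 μg/ml BODIPY-LDL added in serum-free medium for 5 h. Fluorescence (Ex 485/Em 520 nm) normalized to protein; PCSK9-only wells = 0%, no-PCSK9 wells = 100% uptake, giving percent increase in LDL uptake.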

High Fat Diet C57 Mice = assay: LDL-C lowering activity in high fat diet C57 mice; format: in vivo; conditions: Mus musculus, po, 168 h; C57 mice on high fat diet; 30 mg/Kg orally once a day, 7 days treatment, blood on day 7; read-out: % Change Vs Vehicle Control in LDLc
Description: LDL-C Lowering Activity—in High Fat Diet C57 Mice
The in-vivo LDL-c lowering for test compound was tested in C57 mice which were kept on high fat diet for 4 weeks and the blood was collected by retro-orbital sinus puncture method under light ether anesthesia on day 0 (pretreatment). Animal are grouped based on LDL-c levels, after that 7 days treatment with vehicle or test compound orally at a dose of 30 mpk dose once a day was given. On completion of treatment on day 7 of the treatment the blood was collected for LDL-c and TC levels measurement.

Sequence of PCSK9 (Q8NBP7 153-692): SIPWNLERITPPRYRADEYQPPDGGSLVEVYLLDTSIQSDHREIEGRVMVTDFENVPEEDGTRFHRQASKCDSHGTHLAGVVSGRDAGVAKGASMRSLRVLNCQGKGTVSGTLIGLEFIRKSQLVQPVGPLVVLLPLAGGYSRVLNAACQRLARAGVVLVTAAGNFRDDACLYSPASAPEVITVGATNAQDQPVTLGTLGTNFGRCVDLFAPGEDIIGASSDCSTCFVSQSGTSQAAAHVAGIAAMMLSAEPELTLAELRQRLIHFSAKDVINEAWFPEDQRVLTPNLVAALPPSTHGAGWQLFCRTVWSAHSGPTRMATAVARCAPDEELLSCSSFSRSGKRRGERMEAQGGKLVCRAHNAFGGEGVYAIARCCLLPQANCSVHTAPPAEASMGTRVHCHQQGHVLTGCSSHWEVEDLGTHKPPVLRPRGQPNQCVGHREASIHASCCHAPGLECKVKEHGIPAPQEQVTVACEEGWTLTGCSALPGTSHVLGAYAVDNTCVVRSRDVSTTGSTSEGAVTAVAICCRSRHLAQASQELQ

SMILES	% increase in LDL Uptake (PCSK9; 1 μM test compound) [%]	% increase in LDL Uptake (PCSK9; 10 μM test compound) [%]	% increase in LDL Uptake (PCSK9; 30 μM test compound) [%]	change in vivo at 30 mg/kg (High Fat Diet C57 Mice) [%]
COC1(c2ccc(C(=O)N3CC4CN(c5ccc(C(F)(F)F)cc5)CC4C3)cc2)COC1 (stereo not shown) [Example 57, (4-(3-methoxyoxetan-3-yl)phenyl)(5-(4-(trifluoromethyl)phenyl)hexahydropyrrolo[3,4-c]pyrrol-2(1H)-yl)methanone]	6	32	53	-43 ± 9
O=C(c1ccc(C2(O)COC2)cc1)N1CC=C(c2ccc(C(F)(F)F)cc2)CC1 [Example 87, (4-(3-hydroxyoxetan-3-yl)phenyl)(4-(4-(trifluoromethyl)phenyl)-5,6-dihydropyridin-1(2H)-yl)methanone]	77	115	94	-36 ± 5
O=C(c1ccc(C2(O)COC2)cc1)N1CCN(c2ccc(C(F)(F)F)cn2)CC1 [Example 216, (4-(3-hydroxyoxetan-3-yl)phenyl)(4-(5-(trifluoromethyl)pyridin-2-yl)piperazin-1-yl)methanone]	0	64	189	-40 ± 6
O=C(Nc1cccc(C2(O)COC2)c1)N1CC2CN(c3ccc(C(F)(F)F)cc3)CC2C1 (stereo not shown) [Example 182, N-(3-(3-hydroxyoxetan-3-yl)phenyl)-5-(4-(trifluoromethyl)phenyl) hexahydropyrrolo[3,4-c]pyrrole-2(1H)-carboxamide]	42	37	60	-5 ± 11
COC1(c2ccc(C(=O)N3Cc4cn(-c5ccc(C(F)(F)F)cc5)nc4C3)cc2)COC1 [Example 90, (4-(3-methoxyoxetan-3-yl)phenyl)(2-(4-(trifluoromethyl)phenyl)-2,6-dihydropyrrolo[3,4-c]pyrazol-5(4H)-yl)methanone]	3	39	74	-5.5 ± 4.5
O=C(c1ccc(C2(O)COC2)cc1)N1CCC(O)(c2ccc(C(F)(F)F)cc2)CC1 [Example 86, (4-hydroxy-4-(4-(trifluoromethyl)phenyl)piperidin-1-yl)(4-(3-hydroxyoxetan-3-yl)phenyl)methanone]	2	33	55	-28 ± 4
O=C(c1ccc(C2(O)COC2)cc1)N1CC2CC(c3ccc(C(F)(F)F)cc3)CC2C1 (stereo not shown) [Example 10, (4-(3-hydroxyoxetan-3-yl)phenyl)(5-(4-(trifluoromethyl)phenyl)hexahydrocyclopenta[c]pyrrol-2(1H)-yl)methanone]	0	273	347	-15 ± 8
COC1(c2ccc(C(=O)N3CCC(c4ccc(C(F)F)cc4)CC3)cc2)COC1 [Example 68, (4-(4-(difluoromethyl)phenyl)piperidin-1-yl)(4-(3-methoxyoxetan-3-yl)phenyl)methanone]	0	2	51	–
OC1(c2ccc(-c3nc(-c4ccc(C(F)(F)F)c(F)c4)no3)cc2)COC1 [Example 16, 3-(4-(3-(3-fluoro-4-(trifluoromethyl)phenyl)-1,2,4-oxadiazol-5-yl)phenyl) oxetan-3-ol]	38	22	19	–
O=C(c1ccc(C2(O)COC2)cc1)N1CCC(c2ccc(C(F)(F)F)c(Cl)c2)CC1 [Example 32, (4-(3-chloro-4-(trifluoromethyl)phenyl)piperidin-1-yl)(4-(3-hydroxyoxetan-3-yl)phenyl)methanone]	12	30	33	–
CC(C)OC1(c2ccc(C(=O)N3CCC(c4ccc(C(F)(F)F)cc4)CC3)cc2)COC1 [Example 44, (4-(3-isopropoxyoxetan-3-yl)phenyl)(4-(4-(trifluoromethyl)phenyl)piperidin-1-yl)methanone]	31	56	77	–
CCOC1(c2cccc(C(=O)N3CC4CN(c5ccc(C(F)(F)F)cc5)CC4C3)c2)COC1 (stereo not shown) [Example 178, (3-(3-ethoxyoxetan-3-yl)phenyl)(5-(4-(trifluoromethyl)phenyl)hexahydropyrrolo[3,4-c]pyrrol-2(1H)-yl)methanone]	0	51	47	–
COC1(c2cccc(C(=O)N3CC4CN(c5ccc(C(F)(F)F)cn5)CC4C3)c2)COC1 (stereo not shown) [Example 208, (3-(3-methoxyoxetan-3-yl)phenyl)(5-(5-(trifluoromethyl)pyridin-2-yl)hexahydropyrrolo[3,4-c]pyrrol-2 (1H)-yl)methanone]	56	14	189	–
CCOC1(c2ccc(C(=O)N3CCC(c4ccc(C(F)(F)F)c(F)c4)CC3)cc2)COC1 [Example 42, (4-(3-ethoxyoxetan-3-yl)phenyl)(4-(3-fluoro-4-(trifluoromethyl)phenyl)piperidin-1-yl)methanone]	20	25	4	–
COC1(c2ccc(NC(=O)N3CCC(c4ccc(C(F)(F)F)cc4)CC3)cc2)COC1 [Example 5, N-(4-(3-methoxyoxetan-3-yl)phenyl)-4-(4-(trifluoromethyl)phenyl) piperidine-1-carboxamide]	41	76	72	–
OC1(c2cc(N3CCOCC3)cc(N3CCC(c4ccc(C(F)(F)F)cc4)CC3)c2)COC1 [Example 84, 3-(3-morpholino-5-(4-(4-(trifluoromethyl)phenyl)piperidin-1-yl)phenyl) oxetan-3-ol]	6	13	17	–
O=C(c1ccc(C2(O)COC2)cc1)N1Cc2cn(-c3ccc(C(F)(F)F)cc3)nc2C1 [Example 89, (4-(3-hydroxyoxetan-3-yl)phenyl)(2-(4-(trifluoromethyl)phenyl)-2,6-dihydropyrrolo[3,4-c]pyrazol-5(4H)-yl)methanone]	0	5	159	–
O=C(c1ccc(C2(O)COC2)cc1)N1CCC2(CCN(c3ccc(C(F)(F)F)cc3)CC2)C1 [Example 186, (4-(3-hydroxyoxetan-3-yl)phenyl)(8-(4-(trifluoromethyl)phenyl)-2,8-diazaspiro[4.5]decan-2-yl)methanone]	17	73	31	–
CCOC1(c2ccc(C(=O)N3CCC(c4ccc(C(F)(F)F)cc4)CC3)cc2)CSC1 [Example 148, (4-(3-ethoxythietan-3-yl)phenyl)(4-(4-(trifluoromethyl)phenyl)piperidin-1-yl)methanone]	20	3	11	–
O=C(c1cncc(C2(O)COC2)c1)N1CCC(c2ccc(C(F)(F)F)cc2)CC1 [Example 49, (5-(3-hydroxyoxetan-3-yl)pyridin-3-yl)(4-(4-(trifluoromethyl)phenyl)piperidin-1-yl)methanone]	11	45	74	–
COC1(c2cccc(NC(=O)N3CC4CN(c5ccc(C(F)(F)F)cc5)CC4C3)c2)COC1 (stereo not shown) [Example 183, N-(3-(3-methoxyoxetan-3-yl)phenyl)-5-(4-(trifluoromethyl)phenyl) hexahydropyrrolo[3,4-c]pyrrole-2(1H)-carboxamide]	32	15	88	–
CC(C)COC1(c2ccc(C(=O)N3CCC(c4ccc(C(F)(F)F)cc4)CC3)cc2)COC1 [Example 45, (4-(3-isobutoxyoxetan-3-yl)phenyl)(4-(4-(trifluoromethyl)phenyl)piperidin-1-yl)methanone]	19	9	4	–
O=C(c1ccc(C2(O)COC2)cc1)N1CCC2(CC1)CCN(c1ccc(C(F)(F)F)cc1)CC2 [Example 99, (4-(3-hydroxyoxetan-3-yl)phenyl)(9-(4-(trifluoromethyl)phenyl)-3,9-diazaspiro[5.5]undecan-3-yl)methanone]	50	0	0	–
O=C(c1ccc(C2(O)COC2)cc1)N1CCc2cc(-c3ccc(C(F)(F)F)cc3)ccc21 [Example 107, (4-(3-hydroxyoxetan-3-yl)phenyl)(5-(4-(trifluoromethyl)phenyl)indolin-1-yl)methanone]	27	0	0	–
CSc1ccc(C2=CC3CN(C(=O)c4ccc(C5(O)COC5)cc4)CC3C2)cc1 (stereo not shown) [Example 131]	−5	57	−1	–
